From patent US20250099467A1, “COMBINATION THERAPY FOR TREATING ABNORMAL CELL GROWTH” (Verastem, Inc., priority 2022, published 2025)

Experiments:
Assay type in all cases: cell-based, human
[1] = tested on: endometrial cancer cell lines; experiment: 3D proliferation assay with synergy analysis, endometrial panel; conditions: VS-6766 combined with ZN-C3 (WEE1); panel of 6 endometrial cancer cell lines; 3D Matrigel, 7 days, CellTiter-Glo; FIG. 3, 4
Procedure: (§1) As examples, human cancer cell lines including non-small cell lung cancer (NSCLC), colorectal cancer (CRC), ovarian cancer and endometrial cancer were grown in 3D conditions. Briefly, 96-well plates were coated with 50 μL of Matrigel (100%) and incubated at 37° C. and 5% CO2 for 30 min in order for the Matrigel to solidify. Cells were seeded in 100 μL of 2% Matrigel containing medium. After an overnight incubation (17-22 hours), cells were treated with VS-6766 (RAF/MEK clamp)+/−DDR pathway inhibitor (e.g., DDR pathway inhibitor that targets WEE1, e.g., ZN-C3) for 7 days. VS-6766 was used at 1:5 dilutions starting at 5 μM and ZN-C3 was used at 1:3 dilutions starting at 5 μM. Cell viability was measured using the cell viability CellTiter-Glo assay.
(§2) Raw data and metadata files were processed with a custom R-script for single agent and combination activity. Bliss, Loewe, Highest Single Agent (HSA) and ZIP synergy analysis were performed to generate a composite synergy score. Summary graphics and reports were saved for visualization and further analysis.

[2] = tested on: ovarian cancer cell lines; experiment: 3D proliferation assay with synergy analysis, ovarian panel; conditions: VS-6766 combined with ZN-C3 (WEE1); panel of 12 ovarian cancer cell lines; 3D Matrigel, 7 days, CellTiter-Glo; FIG. 3, 4
Procedure: as §1, §2

[3] = tested on: CRC KRAS mutant cell lines; experiment: 3D proliferation assay with synergy analysis, CRC panel; conditions: VS-6766 combined with ZN-C3 (WEE1); panel of 9 CRC KRAS mt cell lines; 3D Matrigel, 7 days, CellTiter-Glo; FIG. 1, 2
Procedure: as §1, §2

[4] = tested on: NSCLC KRAS mutant cell lines; experiment: 3D proliferation assay with synergy analysis, NSCLC panel; conditions: VS-6766 combined with ZN-C3 (WEE1); panel of 9 NSCLC KRAS mutant cell lines; 3D Matrigel, 7 days, CellTiter-Glo; FIG. 1, 2
Procedure: as §1, §2

Measured: synergy with ZN-C3 in reducing cell viability (composite of Bliss, Loewe, HSA and ZIP)

CNS(=O)(=O)Nc1nccc(Cc2c(C)c3ccc(Oc4ncccn4)cc3oc2=O)c1F [VS-6766]
synergistic: all assays above
